Source: patent US20150073002A1, “COMBINATION” (GlaxoSmithKline LLC, priority 2010, published 2015)
Read-outs that look alike come from different tables or passages of the source.

Tests used:
[1] = test system: HCC1419; experiment: Cell growth inhibition assay (Cell Titer Glo), HCC1419; assay type: cell-based; conditions: Homo sapiens, 72 h; HCC1419, 3 days, single agent; read-out: Single Agent IC50 (μM), mean ± STD
Protocol: (§1) Human breast tumor cell lines BT474, HCC1419, HCC1954, JIMT1, MDA-MB-361, SK-BR-3 and UACC893 were cultured in RPMI 1640 medium containing 10% FBS. BT-474-J4, a breast cancer cell line acquired resistant to Compound A was cultured in RPMI 1640 medium containing 10% FBS and 1 μM of Compound A. KPL4 breast cancer line was cultured in DMEM containing 5% FBS. All lines were kept in a humidified incubator at 37° C. in 95% air and 5% CO2. JIMT-1 is a cell line established from a tumor of a patient with trastuzumab-resistant breast cancer. BT-474-J4 is a single cell clone derived from a culture of BT-474 cells that were selected to grow in Compound A to a concentration of 3 μM.
(§2) All cells were cultured for a minimum of 72 hours prior to cell plating. […] ATP levels were determined by adding Cell Titer Glo® (Promega) according to the manufacturer's protocol. Briefly, Cell Titer Glo® was added to each plate, incubated for 20 minutes then the luminescent signal was read on a SpectraMax L plate reader with a 0.5 sec integration time.
(§3) Inhibition of cell growth was estimated after treatment with compound or a combination of compounds for three days and comparing the signal to cells treated with vehicle (DMSO). Cell growth was calculated relative to vehicle (DMSO) treated control wells. […]

[2] = test system: SK-BR-3; experiment: Cell growth inhibition assay (Cell Titer Glo), SK-BR-3; assay type: cell-based; conditions: Homo sapiens, 72 h; SK-BR-3, 3 days, single agent; read-out: Single Agent IC50 (μM), mean ± STD
Protocol: as §1, §2, §3

[3] = test system: BT-474; experiment: Cell growth inhibition assay (Cell Titer Glo), BT-474; assay type: cell-based; conditions: Homo sapiens, 72 h; BT-474, 3 days, single agent; read-out: Single Agent IC50 (μM), mean ± STD
Protocol: as §1, §2, §3

[4] = test system: KPL4; experiment: Cell growth inhibition assay (Cell Titer Glo), KPL4; assay type: cell-based; conditions: Homo sapiens, 72 h; KPL4, 3 days, single agent; read-out: Single Agent IC50 (μM), mean ± STD
Protocol: as §1, §2, §3

[5] = test system: UACC893; experiment: Cell growth inhibition assay (Cell Titer Glo), UACC893; assay type: cell-based; conditions: Homo sapiens, UACC-893, 72 h; UACC893, 3 days, single agent; read-out: Single Agent IC50 (μM), mean ± STD
Protocol: as §1, §2, §3

[6] = test system: HCC1954; experiment: Cell growth inhibition assay (Cell Titer Glo), HCC1954; assay type: cell-based; conditions: Homo sapiens, 72 h; HCC1954, 3 days, single agent; read-out: Single Agent IC50 (μM), mean ± STD
Protocol: as §1, §2, §3

[7] = test system: BT-474-J4; experiment: Cell growth inhibition assay (Cell Titer Glo), BT-474-J4; assay type: cell-based, human; conditions: BT-474-J4, 3 days, single agent, read-out: Single Agent IC50 (μM), mean ± STD
Protocol: as §1
(§4) All cells were cultured for a minimum of 72 hours prior to cell plating. Cells were assayed in a 96-well tissue culture plate (NUNC 136102) of RPMI medium containing 10% FBS for all cells at 2,000 cells per well except KPL4, which were plated in DMEM containing 5% FBS at 500 cells per well. Approximately 24 hours after plating, cells were exposed to ten, two-fold or three-fold serial dilutions of compound or the combination of the two agents at a constant molar to molar ratio of 1:1 Compound A to Compound B in RPMI media containing 10% FBS or DMEM containing 5% FBS for KPL4. Cells were incubated in the presence of compounds for 3 days. ATP levels were determined by adding Cell Titer Glo® (Promega) according to the manufacturer's protocol. Briefly, Cell Titer Glo® was added to each plate, incubated for 20 minutes then the luminescent signal was read on a SpectraMax L plate reader with a 0.5 sec integration time.
as §3

[8] = test system: MDA-MB-361; experiment: Cell growth inhibition assay (Cell Titer Glo), MDA-MB-361; assay type: cell-based, human; conditions: MDA-MB-361, 3 days, single agent, read-out: Single Agent IC50 (μM), mean ± STD
Protocol: as §1
All cells were cultured for a minimum of 72 hours prior to cell plating. Cells were assayed in a 96-well tissue culture plate (NUNC 136102) of RPMI medium containing 10% FBS for all cells at 2,000 cells per well except KPL4, which were plated in DMEM containing 5% FBS at 500 cells per well. […] ATP levels were determined by adding Cell Titer Glo® (Promega) according to the manufacturer's protocol. Briefly, Cell Titer Glo® was added to each plate, incubated for 20 minutes then the luminescent signal was read on a SpectraMax L plate reader with a 0.5 sec integration time.
as §3
(§5) Combination effects on potency were evaluated using Combination Index (CI) which was calculated with the back-interpolated IC50 values and the mutually non-exclusive equation derived by Chou and Talalay (Chou T C, Talalay P. Quantitative analysis of dose-effect relationships: the combined effects of multiple drugs or enzyme inhibitors. Adv Enzyme Regul 1984; 22:27-55): […]

[9] = test system: JIMT-1; experiment: Cell growth inhibition assay (Cell Titer Glo), JIMT-1; assay type: cell-based, human; conditions: JIMT-1, 3 days, single agent, read-out: Single Agent IC50 (μM), mean ± STD
Protocol: as §1, §4, §3, §5
(§6) The combination effects on the response scale were quantified by Excess Over Highest Single Agent (EOHSA) [Liu L, Shi H, Liu Y, Anderson A, Peterson J, Greger J, Martin A M, Gilmer T M. Synergistic Effects of Foretinib with HER-Targeted Agents in MET and HER1- or HER2-Coactivated Tumor Cells. […] For single agent and combination treatments, cells were exposed to compounds at a fixed-dose-ratio, and dose response curves were fit to the experimental data and analyzed using regression models described above. […]

[10] = test system: HCC1419, SK-BR-3 and BT474 lines; experiment: Cell growth inhibition, text summary over three lines; assay type: cell-based; conditions: Homo sapiens, 72 h; over HCC1419, SK-BR-3 and BT474 lines, 3 days; read-out: IC50 as a single agent
Protocol: as §1, §4, §3, §5, §6

[11] = test system: KPL-4, UACC893 and HCC1954 lines; experiment: as above; assay type: cell-based; conditions: Homo sapiens, 72 h; over KPL-4, UACC893 and HCC1954 lines, 3 days; read-out: IC50 as a single agent
Protocol: as §1, §4, §3, §5, §6

[12] = test system: BT474-J4, and MDA-MB-361; experiment: Cell growth inhibition, text summary over two lines; assay type: cell-based; conditions: Homo sapiens, 72 h; over BT474-J4 and MDA-MB-361 lines, 3 days; read-out: IC50 as a single agent
Protocol: All cells were cultured for a minimum of 72 hours prior to cell plating. […] Cells were incubated in the presence of compounds for 3 days. ATP levels were determined by adding Cell Titer Glo® (Promega) according to the manufacturer's protocol.
Cell growth was calculated relative to vehicle (DMSO) treated control wells.
In general, a CI value <0.9, between 0.9 and 1.1, or >1.1 indicates synergy, additivity and antagonism, respectively. In general, the smaller the CI number, the greater is the strength of synergy.

[13] = test system: BT474; experiment: Cell apoptosis induction, caspase-3/7 activation, BT474; assay type: cell-based, human; conditions: BT474, 24 hours
Protocol: as §1
(§7) For investigation of the induction of apoptosis, cells were plated at 5,000 cells per well in a 96-well tissue culture plate and allowed to attach for approximately 24 hours. Cells were exposed to ten, two-fold or three-fold serial dilutions of compound or the combination of the two agents at a constant molar to molar ratio of 10:1 Compound A to Compound B in RPMI media containing 10% FBS or DMEM containing 5% FBS for KPL4. Twenty-four hours after compound treatment, caspase 3/7 activity was determined with the Caspase Glo™ 3/7 (Promega, cat G8093) according to the instructions provided by the manufacturer.

[14] = test system: KPL-4; experiment: Cell apoptosis induction, caspase-3/7 activation, KPL-4; assay type: cell-based, human
Protocol: as §1, §7

[15] = test system: BT474-J4; experiment: Cell apoptosis induction, caspase-3/7 activation, BT474-J4; assay type: cell-based, human; conditions: BT474-J4, 24 hours
Protocol: as §1, §7

| SMILES | IC50 [1] | IC50 [2] | IC50 [3] | IC50 [4] | IC50 [5] | IC50 [6] | IC50 ([7]; Homo sapiens, 72 h) | IC50 ([8]; Homo sapiens, MDA-MB-361, 72 h) | IC50 ([9]; Homo sapiens, JIMT-1, 72 h) | IC50 [9] | IC50 [10] | IC50 [11] | other results |
| --- | --- | --- | --- | --- | --- | --- | --- | --- | --- | --- | --- | --- | --- |
| CS(=O)(=O)CCNCc1ccc(-c2ccc3ncnc(Nc4ccc(OCc5cccc(F)c5)c(Cl)c4)c3c2)o1 [Compound A, N-{3-Chloro-4-[(3-fluorobenzyl)oxy]phenyl}-6-[5-({[2-(methanesulphonyl)ethyl]amino}methyl)-2-furyl]-4-quinazolinamine, reference compound] | 0.077 ± 0.017 µM | 0.105 ± 0.039 µM | 0.134 ± 0.049 µM | 0.86 ± 0.039 µM | 1.12 ± 0.15 µM | 1.73 ± 0.165 µM | 9.23 ± 3.83 µM | > 10 µM | ≥ 6.8 µM | > 10 µM | ≤ 0.134 µM | 0.9 to 1.7 µM | IC50 [12]: ≥ 9.2 µM; caspase 3/7 activity ([13]; compound alone, dose response): increased caspase 3/7 activity in a dose dependent manner; caspase 3/7 activity ([14]; KPL4, 24 hours, compound alone at 10 μM): slight increase in caspase 3/7 activity; caspase 3/7 activity ([15]; compound alone at 10 μM): slight increase in caspase 3/7 activity |
| Cn1ncc(Cl)c1-c1cc(C(=O)N[C@H](CN)Cc2cccc(F)c2)sc1Cl [Compound B, N-{(1S)-2-amino-1-[(3-fluorophenyl)methyl]ethyl}-5-chloro-4-(4-chloro-1-methyl-1H-pyrazol-5-yl)-2-thiophenecarboxamide] | 2.62 ± 0.548 µM | 4.19 ± 1.58 µM | 3.3 ± 1.1 µM | 0.113 ± 0.012 µM | 0.505 ± 0.303 µM | 3.67 ± 2.97 µM | 0.5 µM | 0.7 µM | ≥ 6.8 µM | 6.81 ± 2.13 µM | ≥ 2.6 µM | 0.5 to 3.7 µM | IC50 [7]: 0.67 ± 0.026 µM; IC50 [8]: 0.758 ± 0.074 µM; caspase 3/7 activity ([13]; compound alone at 1 μM): slightly increased caspase 3/7 activity; caspase 3/7 activity ([14]; KPL-4, 24 hours, compound alone at 1 μM): but not in the KPL-4 line; caspase 3/7 activity ([15]; compound alone at 1 μM): slightly increased caspase 3/7 activity |
